Consider 3 molecules from patent publication US10918746B2, “Radioactive compositions and methods for their therapeutic use” (IsoTherapeutics Group LLC, priority 2011, dated 2021).

Series [1] is described as follows: Biolocalization two hours after delivery into a drilled hole in the femur. The series is classed as in vivo, Sprague Dawley rat. The conditions noted are these: rat femur. How it is done:
Ho-166 in 0.1M HCl was obtained from MURR. The pH was measured with pH paper showing a pH of about 1. A miniature drill was used to create a hole in the femur of an anesthetized Sprague Dawley rat. A miniature pump was used to deliver 3 μL of Ho-166 solution into the hole created by the drill. Two hours after the injection of the dose the rat was sacrificed and dissected. The amount of activity found in the site of injection was 5% of the injected dose. 52% of the dose was found in the liver and 23% of the dose was found in the rest of the bone.
A miniature drill was used to create a hole in the femur of an anesthetized Sprague Dawley rat. A miniature pump was used to deliver 2 μL of Sm-153-DOTMP solution into the hole created by the drill. Two hours after the injection of the dose the rat was sacrificed and dissected. The amount of activity found in the site of injection was 9% of the injected dose and about 20% was found in the rest of the bone. An average of 65% of the injected dose was found in the urine.

Series [2] in a line: Biolocalization after injection into synovial cavity of right hind knee. Format: in vivo, Sprague Dawley rats. The conditions noted are these: Rats. An excerpt:
One method of this invention uses a therapeutically-effective quantity of the compositions of Formula (II) and Formula (III), administered in one or more locations into or near a Non-intracavitary, undesirable tissue mass (e.g. cancer) in an animal or human in need of such treatment. Another method of this invention uses a therapeutically-effective quantity of these hydroxy carbonates, administered in one or more locations into or near the synovial cavity to treat arthritis. In either method the treatment is such that a major portion of the dose remains at the site of injection (defined as greater than about 90% of the dose remaining at the site after two half-lives of the radioisotopes; more preferably greater than about 95% of the dose remaining at the site after 2 half-lives of the radioactive isotopes; and most preferably greater than about 98% of the dose remaining at the site after 2 half-lives of the radioisotopes) as determined by biolocalization data obtained by dissection of an animal (e.g. BALB/c mice or Sprague Dawley rats); wherein the values are corrected for radioactive decay. It is also important to recognize that deposition of radioactivity in non-target organs and tissues can impact the safety and efficacy of the treatment. Ideally, in mice, less than about 1% remaining in the carcass (including the contralateral femur) and less than about 0.2% in the liver plus the kidneys and, in rats, less than about 1% in the skeletal structure and less than about 0.2% in the liver plus the kidneys. In the case of mice (injection into the gastrocnemius muscle of the right hind leg is used as a model for Non-Intracavitary tumors), all tissues, including the whole carcass, and bedding were collected such that 100% of the radioactivity was accounted for. In the case of rats (injections were directly into the synovial cavity), the size of the animal precluded counting the entire carcass. Therefore samples of blood, muscle, and bone (contralateral femur) were collected and the total masses of those tissues were calculated. The tissue masses were calculated based on rat body weight using equations fitted to data in the literature [Henry H. Donaldson, The Rat: Reference Tables and Data for the Albino Rat and the Norway Rat, (1915)].
Six male Sprague Dawley rats, under Isoflurane anesthesia, were each injected with 20 μL of the Composition prepared according to the procedure of Example 1 into the synovial cavity of the right hind knee using a ⅓ cc insulin syringe. The dose was deposited into the cavity via needle insertion through the skin. The rats were individually housed in cages with absorbent paper under a wire mesh bottom. […]
Due to the size of the animals, the carcass was not collected and measured as was done for the mice. The % ID in the skeletal structure, muscular structure and blood in the body were calculated from the activity in samples of those tissues (left femur, left thigh, blood) and rat body weight using equations fitted to data in the literature as was described earlier.
Samples were counted for radioactivity on a PerkinElmer Wizard automated NaI well detector. The data, shown below in Table 1, indicate the average percent injected dose in each tissue/sample.

On to `[166Ho+3].[Cl-].[Cl-].[Cl-]` [Example G, Ho-166 Chloride], for which the “amount of activity found in the site of injection” value in series [1] was 5 % of the injected dose. In addition, in series [1] (two hours after injection), the “dose found in the liver” value is reported as 52 % of the dose and the “dose found in the rest of the bone” value is recorded as 23%.
Take `O=P([O-])(O)CN1CCN(CP(=O)([O-])O)CCN(CP(=O)(O)O)CCN(CP(=O)([O-])O)CC1.[153Sm+3]` [Sm-153-DOTMP]: in series [1], the “amount of activity found in the site of injection” value is on record as 9 % of the injected dose. Further, the “dose found in the rest of the bone” value in series [1] (two hours after injection) is “about 20%”. The “injected dose found in the urine” value in series [1] (two hours after injection, average) was 65 % of the injected dose.
For the molecule `O=C([O-])CN(CCN(CC(=O)[O-])CC(=O)[O-])CCN(CC(=O)[O-])CC(=O)[O-].[117Sn+4].[H+]` [Example K], in series [2] (14 days), the “Average % ID, Calculated Blood” value is 0.0 % ID; the “Average % ID, Calculated Muscle” value is recorded as 0.3 % ID; the “Average % ID, Calculated Skeleton” value is 28.0 % ID; the “Average % ID, Heart” value amounted to 0.0 % ID. For the same molecule, in series [2] (14 days), the “Average % ID, Kidney” value came out at 0.4 % ID; the “Average % ID, Leg (injection site)” value is recorded as 31.2 % ID; the “Average % ID, Lg. Intestine” value turned out to be 0.0 % ID; the “Average % ID, Liver” value is 0.4 % ID. Moreover, in series [2] (14 days), the “Average % ID, Lung” value is recorded as 0.0 % ID; the “Average % ID, Sm. Intestine” value is 0.0 % ID; the “Average % ID, Spleen” value is recorded as 0.0 % ID; the “Average % ID, Stomach” value was 0.0 % ID. In series [2] (14 days), the “Average % ID, Urine/Feces” value turned out to be 39.5 % ID. Besides, in series [2] (28 days), the “Average % ID, Calculated Blood” value is reported as 0.0 % ID; the “Average % ID, Calculated Muscle” value is given as 0.1 % ID; the “Average % ID, Calculated Skeleton” value is 30.0 % ID; the “Average % ID, Heart” value came to 0.0 % ID. In series [2] (28 days), the “Average % ID, Kidney” value came out at 0.3 % ID; the “Average % ID, Leg (injection site)” value was found to be 22.6 % ID; the “Average % ID, Lg. Intestine” value worked out at 0.0 % ID; the “Average % ID, Liver” value is 0.4 % ID. For the same molecule, in series [2] (28 days), the “Average % ID, Lung” value is 0.0 % ID; the “Average % ID, Sm. Intestine” value is recorded as 0.0 % ID; the “Average % ID, Spleen” value is recorded as 0.0 % ID; the “Average % ID, Stomach” value amounted to 0.0 % ID. Moreover, in series [2] (28 days), the “Average % ID, Urine/Feces” value was 46.6 % ID.
